Data set [1] deals with Aspergillus niger 16404. Description: High resolution minimum inhibitory concentration (HRMIC) test, A. niger. Type of data set: cell-based. The following applies: for control of fungal organisms (A. niger): result in words; for MIC (ppm) A. niger: ppm active ingredient, M9GY medium, 30° C., 24 hours, average of multiple determinations. The method, then:
(§1) Biological Activity: certain compounds of the present invention were tested for activity against three microorganisms, Escherichia coli 8739 (Gram-negative bacterium) and Staphylococcus aureus 6538 (Gram-positive bacterium) and Aspergillus niger 16404.
(§2) The lowest concentration of test compound required to inhibit Staphylococcus aureus 6538, Escherichia coli 8739 and Aspergillus niger 16404 was determined by a high resolution minimum inhibitory concentration (HRMIC) test. Varying amounts of the test compounds were added to minimal salts glucose medium (see T. Maniatis, E. F. Fritsch and J. Sambrook, Molecular Cloning, p 68 (1982)) supplemented with 0.1% yeast extract (M9GY) in a 96-well microtiter plate. […] serial dilutions were performed on a Biomek™ 2000 Workstation to obtain a range of closely spaced concentrations of test compound as shown in Table 1 (based on dilutions of a 10,000 ppm active ingredient stock solution of the test compound). The plates were inoculated with cell suspension of inoculum and adjusted to provide about 10^6 CFU (colony forming units)/ml in each well. The microtiter plates were incubated at 30° C. for 24 hours and then checked (optical density at 650 nm using a microplate reader) for the presence or absence of microbial growth in each well. […] Data reported (ppm active ingredient) are the average of multiple determinations (see Table 2).

The subject of data set [2] is Staphylococcus aureus 6538. In words: High resolution minimum inhibitory concentration (HRMIC) test, S. aureus. The conditions noted are these: for MIC (ppm) S. aur: ppm active ingredient, M9GY medium, 30° C., 24 hours, average of multiple determinations. The class given is cell-based. The method, then:
as §1, §2

The subject of data set [3] is Escherichia coli 8739. In words: High resolution minimum inhibitory concentration (HRMIC) test, E. coli. Type of data set: cell-based. The conditions noted are these: ppm active ingredient; M9GY medium, 30° C., 24 hours; average of multiple determinations. Here is the method:
as §1, §2

The values below come from patent US20030065192A1, “Antimicrobial compounds and methods of use” (priority 2001, published 2003).

One may read the melting point as the temperature of the solid-liquid transition.

Molecule `Cn1sc(Sc2cccc[n+]2[O-])cc1=O` [Compound 3, [2-methyl-3-isothiazolon-5-yl]-(1-oxypyridin-2-yl)sulfide] gave a melting point of 141 to 143 °C. In addition, the “control of fungal organisms (A. niger)” value in data set [1] is reported as “effective control”.

Take `CCCCCCCCn1sc(Sc2cccc[n+]2[O-])c(Cl)c1=O` [Compound 5, [4-chloro-2-n-octyl-3-isothiazolon-5-yl]-(1-oxypyridin-2-yl)sulfide]: the “MIC (ppm) S. aur” value in data set [2] is on record as 0.9 ppm. In addition, the “better control versus Gram-positive (S. aur) bacteria than compound 6” value in data set [2] (relative to compound 6, from Table 2 MIC) is 5 fold. Also, the “MIC (ppm) E. coli” value in data set [3] is 30 ppm. In addition, in data set [1], the “MIC (ppm) A. niger” value is on record as 10 ppm and the “control of fungal organisms (A. niger)” value is on record as “effective control”.

With `Cn1sc(Sc2nc3ccccc3s2)cc1=O` [Compound 6, [2-methyl-3-isothiazolon-5-yl]-(benzothiazol-2′-yl)sulfide, reference compound], the “MIC (ppm) S. aur” value in data set [2] amounted to 5 ppm. Also, the “MIC (ppm) E. coli” value in data set [3] is listed as greater than 1000 ppm. Moreover, in data set [1], the “MIC (ppm) A. niger” value amounted to 15 ppm.
